Assay results reported in patent publication US12594276B2, “Inhibitors of human immunodeficiency virus replication” (ViiV Healthcare UK (No.5) Limited, priority 2024, dated 2026).

Key:
[1] = tested on: recombinant NL4-3 virus (nef section replaced with Renilla luciferase gene) in MT-2 cells; experiment: HIV cell culture assay (antiviral activity, luciferase readout); type: cell-based; conditions: Renilla, NL43, MT-2 cells infected for 4-5 days with recombinant NL4-3 Renilla luciferase virus
How it was run: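 MT-2 cells were infected for 4-5 days with reporter virus made by transfecting the recombinant NL4-3 proviral clone into 293T cells, in the presence of serial compound dilutions. Luciferase activity was read with a live-cell substrate. EC50 came from the exponential median effect equation, (Fa)=1/[1+(ED50/drug conc.)m].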

[2] = Compound cytotoxicity, XTT-based colorimetric assay; type: cell-based; conditions: human; uninfected MT2 cells, day 4, XTT; read-out: CC50
How it was run: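 Uninfected MT2 cells, antiviral-assay protocol without virus; XTT colorimetric readout day 4; CC50 reported.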

| SMILES | EC50 [1] [nM] | CC50 at 4 days [2] [nM] |
| --- | --- | --- |
| Cc1cc(C2(F)CCC(F)(F)CC2)nc2nc([C@H](Cc3cc(F)cc(F)c3)NC(=O)Cn3nc(C4CC4)c4c3C[C@@H]3C[C@H]43)n(-c3ccc(Cl)c4c(NS(C)(=O)=O)nn(CCN5C[C@H]6CC[C@@H](C5)O6)c34)c(=O)c12 (atropisomer, axis not shown; (P)) [Example 592, N-[(1S)-1-[(3P)-3-(4-chloro-3-methanesulfonamido-1-{2-[(1R,5S)-8-oxa-3-azabicyclo[3.2.1]octan-3-yl]ethyl}-1H-indazol-7-yl)-5-methyl-4-oxo-7-(1,4,4-trifluorocyclohexyl)-3H,4H-pyrido[2,3-d]pyrimidin-2-yl]-2-(3,5-difluorophenyl)ethyl]-2-[(2S,4S)-9-cyclopropyl-7,8-diazatricyclo[4.3.0.0^2,^4]nona-1(6),8-dien-7-yl]acetamide] | 0.006 | > 20 |
| COCCCn1nc(NS(C)(=O)=O)c2c(Cl)ccc(-n3c([C@H](Cc4cc(F)cc(F)c4)NC(=O)Cn4nc(C(F)F)c5c4C(F)(F)[C@@H]4C[C@H]54)nc4nc(C5CCC(F)(F)CC5)cc(NCCN5CCC6(CC5)CC6)c4c3=O)c21 (atropisomer, axis not shown; (P)) [Example 515, N-[(1S)-1-[(3P)-5-[(2-{6-azaspiro[2.5]octan-6-yl}ethyl)amino]-3-[4-chloro-3-methanesulfonamido-1-(3-methoxypropyl)-1H-indazol-7-yl]-7-(4,4-difluorocyclohexyl)-4-oxo-3H,4H-pyrido[2,3-d]pyrimidin-2-yl]-2-(3,5-difluorophenyl)ethyl]-2-[(2S,4R)-9-(difluoromethyl)-5,5-difluoro-7,8-diazatricyclo[4.3.0.0^2,^4]nona-1(6),8-dien-7-yl]acetamide] | 0.016 | > 20 |
| COCCCn1nc(NS(C)(=O)=O)c2c(Cl)ccc(-n3c([C@H](Cc4cc(F)cc(F)c4)NC(=O)Cn4nc(C(F)(F)F)c5c4C[C@@H]4C[C@H]54)nc4nc(C5CCC(F)(F)CC5)cc(C)c4c3=O)c21 (atropisomer, axis not shown; (P)) [Example 88, N-[(1S)-1-[(3P)-3-[4-chloro-3-methanesulfonamido-1-(3-methoxypropyl)-1H-indazol-7-yl]-7-(4,4-difluorocyclohexyl)-5-methyl-4-oxo-3H,4H-pyrido[2,3-d]pyrimidin-2-yl]-2-(3,5-difluorophenyl)ethyl]-2-[(2S,4S)-9-(trifluoromethyl)-7,8-diazatricyclo[4.3.0.0^2,^4]nona-1(6),8-dien-7-yl]acetamide] | 0.021 | > 50 |
| Cc1cc(C2CCC(F)(F)CC2)nc2nc([C@H](Cc3cc(F)cc(F)c3)NC(=O)Cn3nc(C(F)F)c4c3C(F)(F)[C@@H]3C[C@H]43)n(-c3ccc(Cl)c4c(NS(C)(=O)=O)nn([C@H](C)CN5CC(C)(C)OC(C)(C)C5)c34)c(=O)c12 (atropisomer, axis not shown; (P)) [Example 733, N-[(1S)-1-[(3P)-3-{4-chloro-3-methanesulfonamido-1-[(2R)-1-(2,2,6,6-tetramethylmorpholin-4-yl)propan-2-yl]-1H-indazol-7-yl}-7-(4,4-difluorocyclohexyl)-5-methyl-4-oxo-3H,4H-pyrido[2,3-d]pyrimidin-2-yl]-2-(3,5-difluorophenyl)ethyl]-2-[(2S,4R)-9-(difluoromethyl)-5,5-difluoro-7,8-diazatricyclo[4.3.0.0^2,^4]nona-1(6),8-dien-7-yl]acetamide] | 0.037 | > 20 |
| Cc1cc(C2(C)CCC(F)(F)CC2)nc2nc([C@H](Cc3cc(F)cc(F)c3)NC(=O)Cn3nc(C4CC4)c4c3C[C@@H]3C[C@H]43)n(-c3ccc(Cl)c4c(NS(C)(=O)=O)nn(CCN5C[C@@H](C)O[C@@H](C)C5)c34)c(=O)c12 (atropisomer, axis not shown; (P)) [Example 508, N-[(1S)-1-[(3P)-3-(4-chloro-1-{2-[(2R,6S)-2,6-dimethylmorpholin-4-yl]ethyl}-3-methanesulfonamido-1H-indazol-7-yl)-7-(4,4-difluoro-1-methylcyclohexyl)-5-methyl-4-oxo-3H,4H-pyrido[2,3-d]pyrimidin-2-yl]-2-(3,5-difluorophenyl)ethyl]-2-[(2S,4S)-9-cyclopropyl-7,8-diazatricyclo[4.3.0.0^2,^4]nona-1(6),8-dien-7-yl]acetamide] | 0.012 | > 20 |
| CCc1cc(C2CCC(F)(F)CC2)nc2nc([C@H](Cc3cc(F)cc(F)c3)NC(=O)Cn3nc(C(F)F)c4c3C(F)(F)[C@@H]3C[C@H]43)n(-c3ccc(Cl)c4c(NS(C)(=O)=O)nn(CCCOC)c34)c(=O)c12 (atropisomer, axis not shown; (P)) [Example 638, N-[(1S)-1-[(3P)-3-[4-chloro-3-methanesulfonamido-1-(3-methoxypropyl)-1H-indazol-7-yl]-7-(4,4-difluorocyclohexyl)-5-ethyl-4-oxo-3H,4H-pyrido[2,3-d]pyrimidin-2-yl]-2-(3,5-difluorophenyl)ethyl]-2-[(2S,4R)-9-(difluoromethyl)-5,5-difluoro-7,8-diazatricyclo[4.3.0.0^2,^4]nona-1(6),8-dien-7-yl]acetamide] | 0.018 | > 50 |
| Cc1cc(C2CCC(F)(F)CC2)nc2nc([C@H](Cc3cc(F)cc(F)c3)NC(=O)Cn3nc(C(F)F)c4c3C(F)(F)[C@@H]3C[C@H]43)n(-c3ccc(Cl)c4c(NS(C)(=O)=O)nn(CCN5CCOC(C)(C)C5)c34)c(=O)c12 (atropisomer, axis not shown; (P)) [Example 479, N-[(1S)-1-[(3P)-3-{4-chloro-1-[2-(2,2-dimethylmorpholin-4-yl)ethyl]-3-methanesulfonamido-1H-indazol-7-yl}-7-(4,4-difluorocyclohexyl)-5-methyl-4-oxo-3H,4H-pyrido[2,3-d]pyrimidin-2-yl]-2-(3,5-difluorophenyl)ethyl]-2-[(2S,4R)-9-(difluoromethyl)-5,5-difluoro-7,8-diazatricyclo[4.3.0.0^2,^4]nona-1(6),8-dien-7-yl]acetamide] | 0.004 | > 20 |
| COCCCn1nc(NS(C)(=O)=O)c2c(Cl)ccc(-n3c([C@H](Cc4cc(F)cc(F)c4)NC(=O)Cn4nc(C(F)(F)F)c5c4C(F)(F)[C@@H]4C[C@H]54)nc4nc(C5CCC(F)(F)CC5)cc(C)c4c3=O)c21 (atropisomer, axis not shown; (P)) [Example 89, N-[(1S)-1-[(3P)-3-[4-chloro-3-methanesulfonamido-1-(3-methoxypropyl)-1H-indazol-7-yl]-7-(4,4-difluorocyclohexyl)-5-methyl-4-oxo-3H,4H-pyrido[2,3-d]pyrimidin-2-yl]-2-(3,5-difluorophenyl)ethyl]-2-[(2S,4R)-5,5-difluoro-9-(trifluoromethyl)-7,8-diazatricyclo[4.3.0.0^2,^4]nona-1(6),8-dien-7-yl]acetamide] | 0.014 | > 50 |
| COCCNc1cc(C2CCC(F)(F)CC2)nc2nc([C@H](Cc3cc(F)cc(F)c3)NC(=O)Cn3nc(C(F)F)c4c3C(F)(F)[C@@H]3C[C@H]43)n(-c3ccc(Cl)c4c(NS(C)(=O)=O)nn(CCN5C[C@H](F)C[C@H](F)C5)c34)c(=O)c12 (atropisomer, axis not shown; (P)) [Example 414, N-[(1S)-1-[(3P)-3-(4-chloro-1-{2-[(3R,5S)-3,5-difluoropiperidin-1-yl]ethyl}-3-methanesulfonamido-1H-indazol-7-yl)-7-(4,4-difluorocyclohexyl)-5-[(2-methoxyethyl)amino]-4-oxo-3H,4H-pyrido[2,3-d]pyrimidin-2-yl]-2-(3,5-difluorophenyl)ethyl]-2-[(2S,4R)-9-(difluoromethyl)-5,5-difluoro-7,8-diazatricyclo[4.3.0.0^2,^4]nona-1(6),8-dien-7-yl]acetamide] | 0.01 | > 20 |
| COCCCn1nc(NS(C)(=O)=O)c2c(Cl)ccc(-n3c([C@H](Cc4cc(F)cc(F)c4)NC(=O)Cn4nc(C(F)F)c5c4C(F)(F)[C@@H]4C[C@H]54)nc4nc(C5CCC(F)(F)CC5)cc(CN5CCC(F)(F)CC5)c4c3=O)c21 (atropisomer, axis not shown; (P)) [Example 489, N-[(1S)-1-[(3P)-3-[4-chloro-3-methanesulfonamido-1-(3-methoxypropyl)-1H-indazol-7-yl]-7-(4,4-difluorocyclohexyl)-5-[(4,4-difluoropiperidin-1-yl)methyl]-4-oxo-3H,4H-pyrido[2,3-d]pyrimidin-2-yl]-2-(3,5-difluorophenyl)ethyl]-2-[(2S,4R)-9-(difluoromethyl)-5,5-difluoro-7,8-diazatricyclo[4.3.0.0^2,4]nona-1(6),8-dien-7-yl]acetamide] | 0.018 | > 20 |
| CCc1cc(C2CCC(F)(F)CC2)nc2nc([C@H](Cc3cc(F)cc(F)c3)NC(=O)Cn3nc(C4CC4)c4c3C(F)(F)[C@@H]3C[C@H]43)n(-c3ccc(Cl)c4c(NS(C)(=O)=O)nn(CCCOC)c34)c(=O)c12 (atropisomer, axis not shown; (P)) [Example 639, N-[(1S)-1-[(3P)-3-[4-chloro-3-methanesulfonamido-1-(3-methoxypropyl)-1H-indazol-7-yl]-7-(4,4-difluorocyclohexyl)-5-ethyl-4-oxo-3H,4H-pyrido[2,3-d]pyrimidin-2-yl]-2-(3,5-difluorophenyl)ethyl]-2-[(2S,4R)-9-cyclopropyl-5,5-difluoro-7,8-diazatricyclo[4.3.0.0^2,^4]nona-1(6),8-dien-7-yl]acetamide] | 0.025 | > 50 |
